From ChEMBL document CHEMBL3875161, “Thiazolidin-4-ones from 4-(methylthio)benzaldehyde and 4-(methylsulfonyl)benzaldehyde: Synthesis, antiglioma activity and cytotoxicity” (Eur J Med Chem, 2016) come the findings set out here.

Active and inactive are the calls of the source. No cut-off for these calls is given here.

The species entered for data set [1] is Rattus norvegicus. Nature of the data set: Cytotoxicity against Wistar rat primary astrocytes assessed as inhibition of cell viability at 100 uM after 72 hrs by MTT assay. The class given is toxicity. The following applies: astrocyte. (In general: Formazan colour is commonly taken as a measure of viable cells.)
For data set [2], the species on record is Rattus norvegicus. The data set can be described thus: Cytotoxicity against Wistar rat primary astrocytes assessed as inhibition of cell viability at 250 uM after 72 hrs by MTT assay. The data set is classed as toxicity. The following applies: astrocyte.
Data set [3] in a line: Cytotoxicity against Wistar rat C6 cells assessed as decrease in cell viability at 100 uM after 72 hrs by MTT assay relative to control. The class given is functional.
Data set [4] concerns C6. Nature of the data set: Cytotoxicity against Wistar rat C6 cells assessed as inhibition of cell viability at 5 uM after 72 hrs by MTT assay. The class given is functional, cell-based.
A short description of data set [5]: Cytotoxicity against Wistar rat C6 cells assessed as decrease in cell viability at 100 uM after 48 hrs by MTT assay relative to control. The data set is classed as functional.
In data set [6] the test system is C6. Nature of the data set: Induction of necrosis in Wistar rat C6 cells at 50 to 100 uM after 72 hrs by propidium iodide staining based fluorescence microscopic analysis. The data set is classed as functional, cell-based.
Data set [7] deals with C6. Nature of the data set: Induction of necrosis in Wistar rat C6 cells assessed as change in cell morphology at 50 to 100 uM. The data set is classed as functional, cell-based.
Data set [8] relates to C6. The data set can be described thus: Induction of necrosis in Wistar rat C6 cells assessed as lowering of cell density at 50 to 100 uM. The data set is classed as functional, cell-based.
The test system of data set [9] is C6. The data set can be described thus: Cytotoxicity against Wistar rat C6 cells assessed as inhibition of cell viability at 50 uM after 48 hrs by MTT assay. The data set is classed as functional, cell-based.
Data set [10] has as its system C6. Nature of the data set: Cytotoxicity against Wistar rat C6 cells assessed as inhibition of cell viability at 50 uM after 72 hrs by MTT assay. The class given is functional, cell-based.
In data set [11] the test system is C6. The data set can be described thus: Cytotoxicity against Wistar rat C6 cells assessed as inhibition of cell viability at 25 uM after 72 hrs by MTT assay. The class given is functional, cell-based.
The test system of data set [12] is C6. The data set can be described thus: Cytotoxicity against Wistar rat C6 cells assessed as inhibition of cell viability at 25 uM after 48 hrs by MTT assay. The data set is classed as functional, cell-based.

In the case of `CS(=O)(=O)c1ccc(C2SCC(=O)N2c2ccccn2)cc1` (stereo not drawn), the Activity result in data set [1] and in [2] was “Non-Toxic” throughout.
`CSc1ccc(C2SCC(=O)N2c2ccccn2)cc1` (stereo not drawn): the Activity entry in [1] and in [2] was “Non-Toxic” in each case.
Regarding `CS(=O)(=O)c1ccc(C2SCC(=O)N2c2ccc3c(c2)OCO3)cc1` (stereo not drawn), the Activity entry in [1] and in data set [2] was “Non-Toxic” each time.
In the case of `CCN(CC)CCCN1C(=O)CSC1c1ccc(SC)cc1` (stereo not drawn), the Activity entry in data set [1] is listed as “Non-Toxic”; in data set [3] it was 67.5%; in data set [2], “Toxic”.
`CSc1ccc(C2SCC(=O)N2Cc2ccccn2)cc1` (stereo not drawn): the inhibition result in [4] is “Active”. The Activity in data set [5] is given as 48%; in data set [1] it was “Non-Toxic”; in data set [3], 75%; in data set [2] it was “Non-Toxic”. In addition, the outcome in data set [6], in data set [7] and in [8] was Active.
Turning to `CS(=O)(=O)c1ccc(C2SCC(=O)N2CCN2CCCCC2)cc1` (stereo not drawn), the Activity result in data set [1] and in [2] was “Non-Toxic” each time.
As for `CSc1ccc(C2SCC(=O)N2c2ccc3c(c2)OCO3)cc1` (stereo not drawn), the Activity was 61.2% in [5], “Non-Toxic” in [1], 81.7% in data set [3] and “Non-Toxic” in data set [2]. For the same compound, the inhibition entry in [9] and in data set [10] was “Active” in each case. The outcome in [6], in data set [7] and in data set [8] was Active.
As to `CSc1ccc(C2SCC(=O)N2CCCN2CCCCC2)cc1` (stereo not drawn), the inhibition result in data set [4] was “Active”. Moreover, the Activity in [5] is reported as 52.2%; in data set [1], “Non-Toxic”; in data set [3], 78%; in [2], “Toxic”. Besides, the result in data set [6], in data set [7] and in data set [8] was Active.
With `CSc1ccc(N2C(=O)CSC2c2ccc(S(C)(=O)=O)cc2)cc1` (stereo not drawn), the Activity entry in data set [1] and in data set [2] was “Non-Toxic” in each case.
On to `CSc1ccc(C2SCC(=O)N2c2ccc(SC)cc2)cc1` (stereo not drawn), for which the Activity result in [1] and in data set [2] was “Non-Toxic” throughout.
In the case of `CS(=O)(=O)c1ccc(C2SCC(=O)N2Cc2ccccn2)cc1` (stereo not drawn), the inhibition result in data set [11] and in data set [12] was “Active” each time. The Activity was 47.2% in data set [5], “Non-Toxic” in data set [1], 77% in [3] and “Non-Toxic” in data set [2]. For the same compound, the result in [6], in data set [7] and in data set [8] was Active.
Regarding `Cn1nnc2c(C(N)=O)ncn2c1=O` [TEMOZOLOMIDE], the Activity in data set [5] was 42.3%; in data set [3] it was 39.7%.
As to `CSc1ccc(C2SCC(=O)N2CCN2CCCCC2)cc1` (stereo not drawn), the Activity result in data set [1] is recorded as “Non-Toxic”; in data set [3] it was 61%; in [2] it was “Toxic”.
Consider `CS(=O)(=O)c1ccc(C2SCC(=O)N2CCCN2CCCCC2)cc1` (stereo not drawn), for which the Activity result in data set [1] and in [2] was “Non-Toxic” each time.
Take `CCN(CC)CCCN1C(=O)CSC1c1ccc(S(C)(=O)=O)cc1` (stereo not drawn): the Activity entry in data set [1] is reported as “Non-Toxic”; in [2], “Toxic”.
